Data taken from PubChem BioAssay AID504539 (Broad Institute, 2011).
Where “and” joins values, the source holds several entries; their conditions need not be identical. Equal values may be shown once.

These molecules were tested on Cell-based prion protein 5' UTR reporter, plate reader (assay: prion protein 5' UTR mRNA inhibitors – cell-based, plate reader, cherry-picked samples, dose response (AID 504539)).

Structure (SMILES) | AC50
CCN1C/C(=C\c2cccc([N+](=O)[O-])c2)C(=O)/C(=C/c2cccc([N+](=O)[O-])c2)C1 | 2350 nM
C[C@H]1CCC/C=C/[C@@H]2C[C@H](O)C[C@H]2[C@@H](O)/C=C/C(=O)O1 | < 38 nM
CN1C2CCC1/C(=C/c1ccccn1)C(=O)/C2=C\c1ccccn1 | 773 nM
COc1cc(C(=O)N2CCN(c3cccc(C)c3C)CC2)cc(OC)c1OC | 1410 nM
Cc1ccc(C(=O)Nc2cc3ccccc3oc2=O)cc1 | 143 nM
Cc1ccc(NC(=O)/C=C/c2ccco2)nc1 | 287 nM
CCOc1ccccc1C1C2=C(COC2=O)Nc2cc3c(cc21)OCO3 (stereo unspecified) | 1050 nM
Nc1nc(F)nc2c1ncn2[C@@H]1O[C@H](CO)[C@@H](O)[C@H]1O | 483 nM
C/C(=N\NC(=O)c1n[nH]c2c1CCC2)c1cccs1 | 401 nM
CC(=O)OC1CC(OC2C(O)CC(OC3C(O)CC(OC4CCC5(C)C(CCC6C5CCC5(C)C(C7=CC(=O)OC7)C(O)CC65O)C4)OC3C)OC2C)OC(C)C1OC1OC(CO)C(O)C(O)C1O (stereo unspecified) | 370 nM
COc1ccc(N=CC2=C(O)c3ccccc3C2=O)c(OC)c1 | 1170 nM
COc1ccc(/C=C2\SC(=O)N(CCCC(=O)Nc3cc(Cl)ccc3C(=O)O)C2=O)cc1 | 242 nM
COc1ccc(OC)c(NS(=O)(=O)c2ccc(N3CCCC3=O)cc2)c1 | 880 nM
CCCC1=Nc2cc(C(=O)NCCCOCC)ccc2Sc2ccccc21 | 434 nM
COc1cc2c(c(OC)c1OC)-c1ccc(O)cc1C(NC(C)=O)CC2 (stereo unspecified) | 128 nM
COC(=O)c1c(NC(=O)c2ccc([N+](=O)[O-])o2)sc2c1CCN(C(C)C)C2 | 2860 nM
CC(C)(C)c1ccc(Oc2ccc(N)cc2)cc1 | 248 nM
NC(=O)c1cc2c3ccccc3ccn2c1-c1ccccc1 | 635 nM
O=C(N/N=C/c1ccccc1)c1[nH]c2ccc(Br)cc2c1-c1ccccc1 | 460 nM
Cc1ccc(NC(=O)O/N=C/c2c(C)nn(C(C)(C)C)c2C)cc1Cl | 270 nM
CCN1C=CC(=C2C(=O)c3ccccc3C2=O)C=C1 | 89 nM
CC(/C=C1\SC(=O)N(CCCC(=O)O)C1=O)=C\c1ccccc1 | 162 nM
CC12CCC3C(CCC4(O)CC(O)CCC34C=NO)C1(O)CCC2C1=COC(=O)C1 (stereo unspecified) | 160 nM
Cc1ccc2nc(-c3ccccc3)cn2c1 | 210 nM
c1ccc(-c2ccc(-c3nc(-c4ccccn4)no3)cc2)cc1 | 224 nM
COc1cc(/C=C2\COC/C(=C\c3cc(OC)c(OC)c(OC)c3)C2=O)cc(OC)c1OC | 788 nM

Structure (SMILES) | AC50
CCN(CC)c1ccc(-c2nn3c(-c4n[nH]c5c4CCC5)nnc3s2)cc1 | 986 nM
COc1ccc(C2=Nn3c(nnc3-c3ccccc3OC)SC2)cc1OC1CCCC1 | 2970 nM
C[C@@H]1O[C@@H](O[C@@H]2C=C3CCC4C(CC[C@]5(C)[C@@H](c6ccc(=O)oc6)CC[C@]45O)[C@@]3(C)CC2)[C@H](O)[C@H](O)[C@H]1O (stereo partly specified) | < 38 nM
CNc1c2cccc(C)c2nc2c(C(=O)NCCN(C)C)cccc12 | 307 nM
Cc1cc(C(=O)COC(=O)C2=COCCO2)c(C)n1-c1ccccc1 | 1170 nM
CN(C)c1ccc(/C=C2\SC(=O)N(CCc3nnc(N)s3)C2=O)cc1 | 481 nM
COc1cccc(NC(=O)Nc2cccc(C(=O)O)c2)c1 | 645 nM
O=C(NCCc1ccccc1)c1ccc2c(c1)OCCO2 | 196 nM
CCOC(=O)c1ccc(NC(=O)Nc2ccon2)cc1 | 596 nM
COC(=O)Cc1[nH]n(-c2nc3ccccc3s2)c(=O)c1C(C)=Nc1ccc(Cl)cc1 | 70 nM
CC/C=C/CC(=O)N[C@@H](c1ccccc1)[C@@H](O)C(=O)O[C@H]1C[C@@]2(O)[C@@H](OC(=O)c3ccccc3)C3[C@](C)(C(=O)[C@H](OC(C)=O)C(=C1C)C2(C)C)[C@@H](O)C[C@H]1OC[C@@]31OC(C)=O (stereo partly specified) | 368 nM
CC1CCC/C=C/C2CC(O)CC2C(O)/C=C/C(=O)O1 (stereo unspecified) | 51 nM
C=CCn1c(C)cc(C(=O)CN2C(=O)c3ccccc3S2(=O)=O)c1C | 249 nM
Cc1cc(C(=O)COC(=O)c2ccccc2O)c(C)n1Cc1cccs1 | 83 nM
CC(=O)OC1(C)CC(C)C(=O)C(C(O)CC2CC(=O)NC(=O)C2)C1 (stereo unspecified) | 500 nM
CC(=O)OC(C)(C)/C=C/C(=O)[C@](C)(O)C1[C@H](O)C[C@@]2(C)C3CC=C4C(C[C@H](O)C(=O)C4(C)C)[C@]3(C)C(=O)C[C@]12C (stereo partly specified) | < 38 nM
NC(=S)NN=Cc1nccc2ccccc12 | 2800 nM
CC1CCCN(c2ccc([N+](=O)[O-])cc2C(=O)c2ccccc2)C1 (stereo unspecified) | 1670 nM
CC(=O)OCC12CC(OC(=O)CC(C)C)C(C)=CC1OC1C(O)C(OC(C)=O)C2(C)C12CO2 (stereo unspecified) | < 38 nM
COc1ccc(C(=O)c2cc([N+](=O)[O-])ccc2N2CCOCC2)cc1 | 397 nM
COc1cc(C2c3cc4c(cc3CC3COC(=O)N32)OCO4)cc(OC)c1OC (stereo unspecified) | 861 nM
CC(C)(C)C(=O)Nc1cc2nn(-c3ccccc3)nc2cc1Cl | < 38 nM
Cc1cccc(C(=O)O/N=C(\N)c2ccccn2)c1 | 915 nM
Cc1ccc(CCC(=O)Nc2ncc(Cc3cccc(Cl)c3Cl)s2)o1 | 358 nM
CC(=NNC(=S)N(Cc1ccccn1)Cc1ccccn1)c1cnccn1 | 878 nM
COc1ccccc1-c1nnc2n1N=C(c1ccc(O)c(O)c1)CS2 | 206 nM

Structure (SMILES) | AC50
O=C(CN1C(=O)c2ccccc2S1(=O)=O)c1ccc2c(c1)OCCO2 | 114 nM
Cc1nn(-c2ccccc2)c2c1CC(=O)Nc1ccccc1-2 | 1960 nM
C[C@@H]1O[C@@H](O[C@@H]2C=C3CC[C@@H]4C(CC[C@]5(C)[C@@H](c6ccc(=O)oc6)CC[C@]45O)[C@@]3(C)CC2)[C@H](O)[C@H](O)[C@H]1O (stereo partly specified) | < 38 nM
Cc1cc(C2=NNC(=NC3CC3)SC2)c(C)n1-c1ccccc1F | < 38 nM
Cc1ccc(-n2nnc(-c3nccs3)n2)cc1 | 571 nM
COc1ccc(OC)c(C2C3=C(COC3=O)Nc3cc4c(cc32)OCO4)c1 (stereo unspecified) | 197 nM
COCCn1c(C)cc(C2=NNC(=NC3CC3)SC2)c1C | < 38 nM
C[C@H]1CCC/C=C/[C@@H]2C[C@H](O)C[C@H]2[C@H](O)/C=C/C(=O)O1 | 72 nM and 51 nM
COc1cccc(C(=O)O/N=C(\N)c2ccccn2)c1 | 448 nM
CC(=O)O[C@H]1C(=O)[C@]2(C)[C@H]([C@H](OC(=O)c3ccccc3)[C@]3(O)C[C@H](OC(=O)[C@H](O)[C@@H](NC(=O)c4ccccc4)c4ccccc4)C(C)=C1C3(C)C)[C@]1(OC(C)=O)CO[C@@H]1C[C@@H]2O | 188 nM
C=CCOc1ccc(/C=C2\SC(=S)N(CCC(=O)O)C2=O)cc1 | 963 nM
O=c1c2ccccc2sc2ccc(C#CC3(O)CCCCC3)cc12 | < 38 nM
CC1=CC(C)CC(C)OC(=O)CC(c2ccc(O)cc2)NC(=O)C(Cc2c(Br)[nH]c3ccccc23)N(C)C(=O)C(C)NC(=O)C(C)C1 (stereo unspecified) | 146 nM
COc1ccccc1-c1nnc2sc(-c3cc4ccccc4o3)nn12 | 4300 nM
COc1cc2c(c(OC)c1OC)-c1ccc(O)c(=O)cc1C(NC(C)=O)CC2 (stereo unspecified) | 160 nM
Cc1ccc(C(=O)CN2C(=O)c3ccccc3S2(=O)=O)cc1 | 823 nM
COc1ccc(OC)c(Nc2c3c(nc4ccccc24)CCC3)c1 | 1600 nM
COC1C(O)C(C)OC(OC2CCC3(C)C(CCC4C3C(O)CC3(C)C(C5=CC(=O)OC5)CCC43O)C2)C1O (stereo unspecified) | 150 nM
CCCc1ccc(C(=O)O/N=C(\N)c2ccccn2)cc1 | 1080 nM
CC(=O)O[C@H]1C(=O)[C@@]2(C)[C@H]([C@H](OC(=O)c3ccccc3)[C@]3(O)C[C@H](OC(=O)[C@H](O)C(NC(=O)c4ccccc4)c4ccccc4)C(C)=C1C3(C)C)[C@]1(OC(C)=O)CO[C@@H]1C[C@@H]2O (stereo partly specified) | 170 nM
CSc1nc(-c2ccccc2)nc(C(Cl)Cl)n1 | 1270 nM
Cc1ccc(C(=O)c2cc([N+](=O)[O-])ccc2N2CCCCC2)cc1 | 848 nM
C/C(=N\NC(=O)c1ccccc1NC(=O)c1ccc(Cl)cc1)c1ccncc1 | 418 nM
C[C@@H]1O[C@@H](O[C@H]2C[C@@H](O)[C@]3(CO)[C@H]4[C@H](O)C[C@]5(C)[C@@H](C6COC(=O)C6)CC[C@]5(O)[C@@H]4CC[C@]3(O)C2)[C@H](O)[C@H](O)[C@H]1O (stereo partly specified) | 915 nM
O=C(/C=C/c1ccccc1)Nc1cccc(C(=O)O)c1 | 392 nM
CCN1/C(=C\C=C\C2=[N+](CC)c3ccccc3C2(C)C)C(C)(C)c2ccccc21 | 924 nM

Structure (SMILES) | AC50
Cn1cccc1/C=C1\SC(=Nc2ccc(O)cc2)NC1=O | 630 nM
O=C(O)c1ccc(N/N=C/c2ccc3c(c2)OCO3)cc1 | 419 nM
CC1CCOC(=O)C=CC=CC(=O)OC2CC3OC4C5OC5(C)C(O)CC4(COC(=O)C1O)C2(C)C31CO1 (stereo unspecified) | 148 nM
O=C(Nc1nc2cc3c(cc2s1)OCCO3)c1ccco1 | 234 nM
Cc1ccc(OCC(=O)c2cc(C)n(-c3ccccc3)c2C)c([N+](=O)[O-])n1 | 3270 nM
CC(C)(C)c1ccc(C(=O)O/N=C(\N)c2ccccn2)cc1 | 317 nM
N/C(=N\OC(=O)c1ccc(Cl)cc1Cl)c1ccccn1 | 539 nM
COc1ccc(/C=N/NC(=O)c2[nH]c3ccc(Br)cc3c2-c2ccccc2)cc1 | 209 nM
c1ccc(-c2noc(-c3ccc4ccccc4c3)n2)nc1 | 158 nM
COc1cc2cc(C(=O)N3CC(COS(C)(=O)=O)c4ccc(O)cc43)[nH]c2c(OC)c1OC (stereo unspecified) | < 38 nM
O=C(c1ccc(Cl)cc1)N1CCCCC(Sc2nnc(-c3ccc4c(c3)OCO4)o2)C1=O (stereo unspecified) | 419 nM
COc1cc(/C=N/O)ccc1OCc1ccc(C(=O)O)cc1 | 226 nM
CCN(CCO)c1ccc(N=Nc2cc(C)[nH]n2)cc1 | 471 nM
COc1ccc(C2=Nn3c(nnc3-c3ccccc3OC)SC2)cc1OC1CCOC1 (stereo unspecified) | 3560 nM
Cc1ccc(C(=O)n2c(N)nc3ccccc32)cc1 | 493 nM
O=C1/C(=C\c2ccc([N+](=O)[O-])cc2)CS(=O)(=O)C/C1=C/c1ccc([N+](=O)[O-])cc1 | 2060 nM
Nc1ccc(-c2cc3ccccc3c(=O)o2)cc1 | 467 nM
CC1CC(C)(O)CC(C(O)CC2CC(=O)NC(=O)C2)C1=O (stereo unspecified) | 493 nM
CC1=CC2OC3CC4OC(=O)C=CC=CC(C(C)O)OCC(O)C(C)CC(=O)OCC2(CC1O)C4(C)C31CO1 (stereo unspecified) | < 38 nM
CC(C)(C)c1ccc(/C=N/Nc2cccc(C(=O)O)c2)cc1 | 2110 nM
CCOC(=O)C(C)Oc1cccc2c(=O)n(CC(=O)NCc3ccc(F)cc3)ccc12 (stereo unspecified) | 486 nM
COC(=O)CCn1nnc(-c2ccc(C(C)C)cc2)n1 | 314 nM
COc1cc(C2c3cc4c(cc3OC(NNC(N)=O)C2C)OCO4)cc(OC)c1OC (stereo unspecified) | 822 nM
